Laboratory results taken from PMC11521309, “A novel 4-aminoquinoline chemotype with multistage antimalarial activity and lack of cross-resistance with PfCRT and PfMDR1 mutants” (PLOS Pathogens, 2024).

Tests used:
[1] = system: P. falciparum FCB^KD1; assay: ABS susceptibility, pfmdr1-modified line; type: cell-based; details: Plasmodium falciparum
Procedure: (§1) P. falciparum ABS parasites were cultured at 3% hematocrit in human O^+ RBCs in RPMI-1640 media supplemented with 25 mM HEPES, 50 mg/L hypoxanthine, 2 mM L-glutamine, 0.21% sodium bicarbonate, 0.5% (w/v) AlbuMAXII (Invitrogen) and 10 μg/mL gentamycin. Culture flasks were kept in modular incubator chambers (Billups-Rothenberg) in a 5% O2, 5% CO2, and 90% N2 atmosphere at 37°C. Synchronized ring-stage parasites were obtained by two consecutive rounds of treatment with 5% D-sorbitol in 48-hour intervals. […] This was done by exposing cultures at 1% hematocrit and 0.3% parasitemia in 96-well plates in the presence of drugs in a two-fold 10 or 12-point serial dilution in duplicate along with drug-free controls. After a 72-hour incubation, parasite survival was assessed by flow cytometry on an iQue flow cytometer (Sartorius) using SYBR Green and MitoTracker Deep Red FM (Life Technologies) as nuclear stain and vital dye, respectively. Parasite survival was determined as a percentage relative to drug-free control. IC50 values were interpolated from log concentration versus response curves in Prism 9 (GraphPad Prism Software Inc.).

[2] = system: P. falciparum FCB; assay: ABS susceptibility, pfmdr1-modified line; type: cell-based; details: Plasmodium falciparum
Procedure: as §1

[3] = system: P. falciparum NF10^NF; assay: ABS susceptibility, pfmdr1-modified line; type: cell-based; details: Plasmodium falciparum
Procedure: as §1

[4] = system: P. falciparum NF10^YF; assay: ABS susceptibility, pfmdr1-modified line; type: cell-based; details: Plasmodium falciparum
Procedure: as §1

[5] = system: pool of barcoded P. falciparum lines (Dd2 and 3D7 backgrounds); assay: Resistome growth assay, pool of 51 barcoded lines; type: cell-based, Plasmodium falciparum; details: 3 × IC50 constant, 14 days
Procedure: The resistome growth assay employs a parasite pool consisting of 51 barcoded lines including both Dd2 and 3D7 genetic backgrounds, with wild-type lines for both (S3 Table). Most lines used were derived from in vitro resistance selection experiments, with others having been CRISPR edited. All lines were barcoded via CRISPR editing of a 101bp barcode cassette into the non-essential pfpare locus (PF3D7_0709700). Parasites were cultured in RPMI-1640 medium supplemented with HEPES (5.94 g/L), NaHCO3 (2.1 g/L), glutamax (1×), hypoxanthine (50 mg/L), gentamycin ([…]), and AlbumaxII (5 g/L) at a […]. Parasite growth was monitored over 14 days by flow cytometry (Cytoflex, Beckman Coulter) by staining with 1× SYBR Green and 0.2 μM MitoTracker Deep Red. Parasitemia adjustments were made to maintain a healthy range of <5% parasitemia. Parasite cultures were harvested at day 14 and lysed by saponin (0.05%), with pellets washed twice with PBS. Barcodes were PCR amplified using 5 μL of parasite pellet and sequenced by Illumina amplicon sequencing.

[6] = system: HepG2 cells; assay: MTT cytotoxicity assay, 72 h; type: cell-based, Human
Procedure: (§2) Human hepatoma (HepG2) and fibroblast-like monkey kidney cells (COS-7) were cultured in Dulbecco’s Modified Eagle Medium supplemented with 10% heat-inactivated fetal bovine serum and gentamycin (40 mg/L) at 37°C in a 5% CO2 atmosphere. Cytotoxicity of test compounds was measured by metabolic reduction of mitochondrial enzymes using the MTT assay (3-[4,5-dimethyl-thiazol-2-yl]-2,5-diphenyltetrazolium chloride). Cells were seeded at 10^5 cells/well in 96-well plates and incubated for 72 hours in the presence of a 2-fold 12-point serial dilution of drugs along with drug-free controls. After adding 15 μL of MTT (5 mg/mL) to the wells, plates were centrifuged at 317g for 5 minutes and the pellet was resuspended in isopropanol. Absorbance was measured at 570 nm (CLARIOStar, Labtech BMG). Cell viability was determined by formazan production, and was expressed as a percentage of untreated control wells.

[7] = MTT cytotoxicity assay, 72 h; type: cell-based, Human; details: human, HepG2 cells; MTT, 72 h, N = 3
Procedure: as §2

[8] = MTT cytotoxicity assay, 72 h; type: cell-based, monkey; details: monkey, COS-7 cells; MTT, 72 h, N = 3
Procedure: as §2

[9] = system: COS-7 cells; assay: MTT cytotoxicity assay, 72 h; type: cell-based, monkey
Procedure: as §2

[10] = system: P. falciparum 7G8^C350R; set-up: key to Phenotype, 7G8^C350R: S: sensitive; R: resistant; details: cited from earlier work
[11] = system: P. falciparum Dd2^M343L; set-up: key to Phenotype, Dd2^M343L: S: sensitive; R: resistant; details: cited from earlier work
[12] = system: P. falciparum Dd2^F145I; set-up: key to Phenotype, Dd2^F145I: S: sensitive; R: resistant; details: cited from earlier work
[13] = system: P. falciparum Dd2^T93S; set-up: key to Phenotype, Dd2^T93S: S: sensitive; R: resistant; details: cited from earlier work
[14] = Dd2T93S, mean ± SEM, ref 2 (Dhingra et al., 2019)

COc1cc2nccc(Nc3cccc(Oc4ccccc4)c3)c2cc1OC [LDT-623]
IC50 ([1]; read-out: IC50 FCBKD1): 488 ± 12 nM | IC90 ([1]; read-out: IC90 FCBKD1): 7.65 ± 1.12 µM | IC50 ([2]; read-out: IC50 FCB): 414 ± 12.9 nM | IC90 ([2]; read-out: IC90 FCB): 4.43 ± 0.164 µM | IC50 ([3]; read-out: IC50 NF10NF): 400 ± 28.2 nM | IC90 ([3]; read-out: IC90 NF10NF): 580 ± 13 nM | IC50 ([4]; read-out: IC50 NF10YF): 360.2 ± 1.9 nM | IC90 ([4]; read-out: IC90 NF10YF): 562.9 ± 2.8 nM | growth recovery of barcoded pool [5]: no growth recovery | SI (CC50 HepG2 / IC50 3D7) [6]: 10 | CC50 at 72 h [7]: 1300 ± 100 nM | CC50 at 72 h [8]: 500 ± 100 nM | SI (CC50 COS-7 / IC50 3D7) [9]: 3.8

CCN(CC)CCCC(C)Nc1ccnc2cc(Cl)ccc12 (stereo not shown) [CQ, chloroquine]
IC50 ([10]; 7G8C350R, mean ± SEM, ref 3 (Kim et al., 2019)): 6.9 ± 0.3 nM | Phenotype, 7G8^C350R ([10]; ref [19],[20],[51]): S | IC50 ([11]; Dd2M343L, mean ± SEM, ref 1 (Ross et al., 2018)): 41.8 ± 1.9 nM | Phenotype, Dd2^M343L ([11]; ref [19],[20],[51]): R | IC50 ([12]; Dd2F145I, mean ± SEM, ref 1 (Ross et al., 2018)): 19.3 ± 1.3 nM | Phenotype, Dd2^F145I ([12]; a: sensitized to CQ compared to the parental line but not fully sensitive, ref [19],[20],[51]): S ^a | IC50 [13, 14]: 61.9 ± 7.6 nM | IC90 [13, 14]: 141 ± 6.3 nM | Phenotype, Dd2^T93S ([13]; ref [19],[20],[51]): R
